# Experimental data published in PMC10515486, “Peptide Bispecifics Inhibiting HIV-1 Infection by an Orthogonal Chemical and Supramolecular Strategy” (Bioconjugate Chemistry, 2023).
# Non-standard residues stand in square brackets, D forms with d. Residues, ends and D or L forms follow the SMILES beside them. No end group written: not given here. *: point of attachment. X1 = O=C(CCCC[C@@H]1SC[C@@H]2NC(=O)N[C@@H]21)NCCOCCOCCOCCOCCOCCOCCOCCOCCOCCOCCOCCNC(=O)CCN1C(=O)CC(*)C1=O
# What was measured:
# [1] = tested on: HIV-1 NL4-3; assay: TZM-bl infection with HIV-1 NL4-3 preincubated with carrier compounds; type: cell-based; details: virus preincubated with increasing amounts of carrier; β-galactosidase 3 days p.i.; three biological replicates
# Method: To determine the infectivity of virions produced in infected human |PBMCs, TZM-bl cells were seeded in 96 -well plates at a density of 10,000 cells/well and infected after overnight incubation with the supernatants collected from the PBMC cultures. Three days p.i., viral infectivity was determined using a galactosidase screen kit from Tropix as recommended by the manufacturer. β-Galactosidase activities were quantified as relative light units (RLU) per second with an Orion Microplate luminometer (Berthold) . […]
# infected with HIV-1 NL4-3 that was preincubated with increasing amounts of the carrier compounds Avidin, Neutravidin or Streptavidin. Three days post infection , a β-galactosidase assay was performed.
# Each dot represents three biological replicates ± SEM.
# (1 picture or pasted object on this page, not shown here)
# [2] = tested on: wild-type HIV-1 NL4-3; details: Figure 2B
# Description: (B) Inhibition of wild-type HIV-1 NL4-3 by single-cysteine VIRIP derivatives.
# [3] = tested on: R5-tropic HIV-1; assay: Replication kinetics in human PBMCs, R5-tropic HIV-1; type: cell-based; details: activated PBMCs from three human donors; 1 μM compound, AMD3100 1 μM, MVC 50 nM; supernatants titrated on TZM-bl cells
# Method: Figure 5 Antiviral activity of single- and multivalent VIR-102C9/EPI-X4 JM#173-C conjugates. Concentrations indicate the molarity of the tested biotin-conjugated peptides or of the SAv conjugates with four copies of mono- or bispecific peptides respectively. (A) TZM-bl cells were pretreated with the indicated amounts of the single or multivalent compound and infected with X4- or R5-tropic HIV-1. Three days post-infection, a β-galactosidase assay was performed. IC50 values are given in the SI (Table S2). (B) Human PBMCs were isolated, stimulated, and pretreated with 1 μM of the indicated single- or multivalent compound, Maraviroc (MVC/50 nM) or AMD3100 (1 μM). […] Infectious virus yield was determined by infection of TZM-bl reporter cells with PBMC culture supernatants obtained at the indicated day post-infection (dpi). […] They are assigned to (14) only because they sit in the plots with the purple curve, matched to the colour legend. / 14, IC50 (X4): small print, 0.026 could be 0.028 or 0.025 / 14, IC50 (R5): small print, 0.039 could be 0.038 or 0.089 / Substance label in the legend reads 'SAv-VIR-1029C-', but panel B prints 'SAv-VIR-102C9'. […]
# Cell viability was determined by the Cell Titer-Glo 2.0 Cell Viability Assay according to the manufacturer’s instructions. […]
# After 48 h, cell viability was assessed by measuring ATP levels in cells lysates with the commercially available Cell Titer-Glo kit. […]
# [4] = tested on: X4-tropic HIV-1 NL4-3; details: read-out: IC50 X4; TZM-bl cells pretreated, infected with X4-tropic HIV-1 NL4-3; β-galactosidase 3 days p.i.; molarity of biotin-conjugated peptide or of SAv construct (per construct); nonlinear regression
# Description: (§1) TZM-bl reporter cells were pretreated with increasing concentrations of the mono- and multivalent compounds and subsequently infected with the well-characterized X4-tropic HIV-1 NL4-3 molecular clone or an R5-tropic derivative thereof that differs in the V3 region of the viral envelope glycoprotein from the parental virus (Figure 5A).[39]
# (§2) (A) TZM-bl cells were pretreated with the indicated amounts of the single or multivalent compound and infected with X4- or R5-tropic HIV-1. Three days post-infection, a β-galactosidase assay was performed. […] (B) Human PBMCs were isolated, stimulated, and pretreated with 1 μM of the indicated single- or multivalent compound, Maraviroc (MVC/50 nM) or AMD3100 (1 μM). The cells were infected with X4- or R5-tropic HIV-1. Infectious virus yield was determined by infection of TZM-bl reporter cells with PBMC culture supernatants obtained at the indicated day post-infection (dpi). […]
# (§3) in supplemented RPMI-1640 and incubated with Human T-Activator CD3/CD28 […]
# (§4) Virus stocks were generated by transient transfection of HEK293T cells using the calcium-phosphate precipitation method. One day before transfection, 0.8 x 10^6 HEK293T cells were seeded in 6 -well plates (Greiner Bio -one, Frickenhausen, Germany). At a confluence of 60-80% cells were used for transfection. For the […]
# [5] = tested on: R5-tropic HIV-1 NL4-3
# Description: as §1, §2, §3, §4
# [6] = tested on: X4-tropic HIV-1; assay: Replication kinetics in human PBMCs, X4-tropic HIV-1; type: cell-based; details: activated PBMCs from three human donors; 1 μM compound, AMD3100 1 μM, MVC 50 nM; supernatants titrated on TZM-bl cells
# Method: as §2
compound,measurement,setting,value
"Streptavidin: tetrameric biotin-binding protein, carrier",effect on HIV-1 infection efficiency,[1],do not alter
LEAIPMSICPEVFFNKPFVF [VIR-102C9],IC50,[2],200 nM
Maraviroc,replication of R5-tropic HIV-1 in PBMCs (infectious virus yield),[3],prevented
CC[C@H](C)[C@H](NC(=O)[C@H](CO)NC(=O)[C@H](CCSC)NC(=O)[C@@H]1CCCN1C(=O)[C@@H](NC(=O)[C@H](C)NC(=O)[C@H](CCC(=O)O)NC(=O)[C@@H](N)CC(C)C)[C@@H](C)CC)C(=O)N[C@@H](CSC1CC(=O)N(CCC(=O)NCCOCCOCCOCCOCCOCCOCCOCCOCCOCCOCCOCCNC(=O)CCCC[C@@H]2SC[C@@H]3NC(=O)N[C@@H]32)C1=O)C(=O)N1CCC[C@H]1C(=O)N[C@@H](CCC(=O)O)C(=O)N[C@H](C(=O)N[C@@H](Cc1ccccc1)C(=O)N[C@@H](Cc1ccccc1)C(=O)N[C@@H](CC(N)=O)C(=O)N[C@@H](CCCCN)C(=O)N1CCC[C@H]1C(=O)N[C@@H](Cc1ccccc1)C(=O)N[C@H](C(=O)N[C@@H](Cc1ccccc1)C(=O)O)C(C)C)C(C)C (stereo partly shown) [compound 5] (H-LEAIPMSIC(X1)PEVFFNKPFVF-OH; N-terminus and C-terminus assumed),IC50,[4],1130 nM
same,IC50,"[5]; read-out: IC50 R5, TZM-bl cells pretreated, infected with R5-tropic HIV-1 NL4-3 derivative, β-galactosidase 3 days p.i., molarity of biotin-conjugated peptide or of SAv construct (per construct)",1200 nM
c1cc(CN2CCCNCCNCCCNCC2)ccc1CN1CCCNCCNCCCNCC1 [AMD3100],replication of X4-tropic HIV-1 in PBMCs (infectious virus yield),[6],blocked
CC[C@@H](C)[C@@H](N)C(=O)N[C@@H](CC(C)C)C(=O)N[C@@H](CCCNC(=N)N)C(=O)N[C@@H](Cc1c[nH]c2ccccc12)C(=O)N[C@@H](CO)C(=O)N[C@@H](CCCNC(=N)N)C(=O)N[C@@H](CCCCN)C(=O)N[C@@H](CSC1CC(=O)N(CCC(=O)NCCOCCOCCOCCOCCOCCOCCOCCOCCOCCOCCOCCNC(=O)CCCC[C@@H]2SC[C@@H]3NC(=O)N[C@@H]32)C1=O)C(N)=O (stereo partly shown) [compound 6] (H-[dI]LRWSRKC(X1)-NH2; N-terminus and C-terminus assumed),activity against the R5-tropic derivative (in words),[5]; TZM-bl cells,inactive
